Measurements published in US6965039B2, “7-carboxy-flavone derivatives preparation method and therapeutic use” (Negma-Lerads, priority 2000, dated 2005).

Key:
IL-6 = assay: Inhibition of IL-6 secretion on PBMC cells (method of Schindler); assay type: cell-based; conditions: tests in duplicate
Protocol: (§1) The inhibiting activity on the secretion of inflammatory cytokines of the compounds of the invention was tested in vitro, more particularly on the secretion of IL-1 (interleukin 1) and on IL-6 and TNFα (tumor necrosis factor), which are the main cytokines related to the arthrotic process.
(§2) The tests on these three cytokines were carried out on PBMC (Peripheral Blood Mononuclear Cells) cells according to the method of Schindler (R. Schindler et al., Blood, (1990) 75, 40-47) using cycloheximide (IL-1) and dexamethasone (IL-6, TNFα) as reference products.
(§3) The results of the tests carried out with the flavone derivatives of the invention described in examples 1, 4 and 6 above [sic] are combined in the following table. The tests were carried out in duplicate, at concentrations of 1 and 10 μM. The results are expressed as percentage of inhibition.

IL-1 (interleukin 1) = assay: Inhibition of IL-1 secretion on PBMC cells (method of Schindler); assay type: cell-based; conditions: tests in duplicate
Protocol: as §1, §2, §3

[1] = test system: TNFα (tumor necrosis factor); assay: Inhibition of TNFα secretion on PBMC cells (method of Schindler); assay type: cell-based; conditions: tests in duplicate, read-out: TNFα, percentage of inhibition
Protocol: as §1, §2, §3

prostaglandins (PGE2) = assay: Secretion of prostaglandins (PGE2) on differentiated HL-60 cells (method of Honda); assay type: cell-based
Protocol: The effect of the derivatives of the invention on the secretion of prostaglandins (PGE2), which increase articular inflammation, and of leukotriene (LTB4) was measured on differentiated HL-60 cells using the methods of Honda (M. Honda et al., Diabetes Res., (1990) 14, 43-46) and of Bennett (C. F. Bennett et al., Biochem. J., (1993) 289, 33-39), respectively, using indomethacin and nordihydroguaiaretic acid as reference products.

[2] = read-out: IL6, percentage of inhibition
[3] = read-out: IL1β, percentage of inhibition

O=C(O)c1cc(O)c2c(=O)cc(-c3ccccc3)oc2c1 [Example 1, 5-Hydroxy-2-phenyl-4-oxo-4H-chromene-7-carboxylic acid] showed an inhibition at 1 µM (IL-6; 1 μM, read-out: IL6, percentage of inhibition) of 50%, an inhibition at 10 µM (IL-6; [2]) of 98% and an inhibition at 1 µM (IL-1 (interleukin 1); 1 μM, read-out: IL1β, percentage of inhibition) of 15%. For the same compound, the inhibition at 10 µM (IL-1 (interleukin 1); [3]) was 96%, the inhibition at 1 µM ([1]; 1 μM) was 61% and the inhibition at 10 µM ([1]; 10 μM) was 32%. The melting point was 270 °C (dec.).
O=C(O)c1cc(O)c2c(=O)cc(-c3ccc(C(F)(F)F)cc3)oc2c1 [Example 6, 5-Hydroxy-2-(4′-trifluoromethylphenyl)-4-oxo-4H-chromene-7-carboxylic acid] gave an inhibition at 10 µM (IL-6; [2]) of 100% and an inhibition at 10 µM (IL-1 (interleukin 1); [3]) of 72%.
In the case of COc1ccc(-c2cc(=O)c3c(O)cc(C(=O)O)cc3o2)cc1 [Example 4, 5-Hydroxy-0.2-(4′-methoxyphenyl)-4-oxo-4H-chromene-7-carboxylic acid], the “IL6, percentage of inhibition” value (IL-6; 1 μM) is reported as 56%, the “IL1β, percentage of inhibition” value (IL-1 (interleukin 1); 1 μM) is reported as under 10% and the “effect on the secretion of prostaglandins” value (prostaglandins (PGE2)) is reported as “stimulating the secretion of prostaglandins”.
